# From the METLIN SMRT retention time set (Domingo-Almenara et al. 2019)
# Test: gradient 5% acetonitrile 3 min, to 50% in 2 min, to 85% in 15 min, held 3 min, 100 µL/min
# Settings: column: Zorbax Extend-C18 2.1 x 50 mm; eluents: water / acetonitrile, 0.1% formic acid
# In short: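 Using water and acetonitrile that each contained 0.1% formic acid, mixtures of ~100 pure standards were separated at 100 μL/min on a Zorbax Extend-C18 column (2.1 × 50 mm, 1.8 μm). The HPLC fed a quadrupole time-of-flight mass spectrometer working in positive and negative ionization mode, with dead and dwell volumes of 40 μL and 900 μL. Data were acquired over 3 months. Retention time was read from computationally picked adduct peaks after manual inspection of each.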
row,SMILES,RP-LC retention time
1,CC(=O)Nc1ccc(N2C(=O)c3cccc4c([N+](=O)[O-])ccc(c34)C2=O)cc1,714 s
2,CC1CCCCN1CCNC(=O)CCCn1c(=O)c2cccn2c2ccc(Br)cc21 (configuration not stated),673 s
3,Cc1ccccc1NC(=O)C1CC(=O)N(c2ccc3c(c2)CCN3C(=O)C2CC2)C1 (configuration not stated),717 s
4,Cc1ccc2c(Nc3cccc(Br)c3)c(C(=O)N3CCOCC3)cnc2n1,611 s
5,CCOC(=O)c1cnc2nc(C)ccc2c1Nc1ccc(OC)cc1OC,702 s
6,CCOC(=O)c1cnc(N2CCN(c3ccccc3OC)CC2)c2ccccc12,1150 s
7,CC(C)CN1CCN(C(=O)c2nc(-c3ccnc(N4CCCCC4)c3)no2)CC1,588 s
8,CCCS(=O)(=O)N1CC(=O)N(c2ccc(F)cc2)C(C)(C(=O)NC2CCCCCC2)C1 (configuration not stated),938 s
9,Cc1ccc(C(=O)N2CCCC(COc3ccc(C(=O)NC4CC4)cc3)C2)c(C)c1 (configuration not stated),856 s
10,CCN(c1cccc(C)c1)S(=O)(=O)c1ccc2c(c1)N(C(C)=O)CCCS2,986 s
11,O=C(Cn1cnc2nc(N3CCC(C(=O)NC4CC4)CC3)sc2c1=O)NCc1ccccc1,637 s
12,CN1C(=O)CCCCC1C(=O)NCc1cccs1 (configuration not stated),637 s
13,COc1ccc(CC(C)(O)CNC(=O)Nc2ccccc2OC)cc1 (configuration not stated),750 s
14,Cc1cc(C)c(C)c(S(=O)(=O)NC2CCN(c3ccc(=O)n(CC4CC4)n3)CC2)c1C,1040 s
15,Cc1cc(NC(=O)C2CCN(S(C)(=O)=O)c3ccccc3O2)ccc1Br (configuration not stated),1040 s
16,O=C(Cc1csc(NC(=O)c2ccco2)n1)Nc1nc2ccc([N+](=O)[O-])cc2s1,797 s
17,COc1cc(NC(=O)c2cn(-c3cc(N4CCCC4)ncn3)cn2)cc(OC)c1,860 s
18,Fc1cccc(-n2cc(-c3noc(-c4ccccc4)n3)nn2)c1,1070 s
19,CCN1CCN(c2cc(C)c3cc(NC(=S)NCc4ccc(F)cc4Cl)ccc3n2)CC1,657 s
20,O=C(NCc1csc(C2CCCN(C(=O)C3CCCC3)C2)n1)C1CC1 (configuration not stated),671 s
21,COCCNC(=O)C1CCN(S(C)(=O)=O)c2cc(Cl)ccc2O1 (configuration not stated),710 s
22,COc1ccc(C(=O)N2CCC(n3c(-c4ccoc4)nc4cccnc43)C2)cc1F (configuration not stated),714 s

row,SMILES,RP-LC retention time
1,Cc1ccc(C)c(NC(=O)N2CCC3(CC2)NC(=O)c2ccc(F)cc2N3C)c1,769 s
2,CO[C@@H]1COCC[C@@H]1N[C@@H]1CC[C@@](C(=O)N2CCc3ncc(C(F)(F)F)cc3C2)(C(C)C)C1,709 s
3,CC(=O)N1CCc2cc(N3CC(C(=O)Nc4cc(F)cc(F)c4)CC3=O)ccc21 (configuration not stated),772 s
4,CN(C)CCn1nnc2cc(-c3noc(-c4ccc(F)cc4)n3)ccc21,651 s
5,Cc1c(C(=O)NCC2CC2)cnn1-c1cc(-c2nc(C(C)(C)C)no2)ccn1,742 s
6,COc1ccc(N2CCN(C(=O)C3CCN(S(=O)(=O)c4cn(C)cn4)CC3)CC2)cc1,628 s
7,CCN1CCC(N(Cc2ccc3c(c2)OCO3)C(=O)Nc2ccc(OC)cc2OC)CC1,659 s
8,COc1ccc(-c2nc(N3CCOCC3)c3sc(CN(C)c4ncc(C(=O)NO)cn4)cc3n2)cn1,674 s
9,Cc1nc(Cn2cccc2C(=O)Nc2ccc(F)cc2F)no1,793 s
10,Cn1c(=O)sc2cc(S(=O)(=O)N3CCC(C(=O)NC4CCCC4)CC3)ccc21,777 s
11,COc1ccc(NC(=O)CN2CCc3c(c(=O)c4cc(C)ccc4n3C)C2)cc1,599 s
12,Cc1nc2cc(-c3noc(-c4ccc5c(c4)OCO5)n3)ccc2n(C)c1=O,920 s
13,CC1=C(c2ccc(C)cc2)S(=O)(=O)N=C1N1CCCN(C(=O)c2ccccn2)CC1,758 s
14,CC(=O)Nc1ccc(NC(=O)c2ccc3nc(-c4ccccc4)cn3c2)cc1,612 s
15,CCOC(=O)COc1ccccc1C1CC(c2ccc(Br)cc2)=NN1C(C)=O (configuration not stated),1050 s
16,CCCCOC(=O)c1cccnc1,874 s
17,CCc1nc(OCC(=O)NCc2ccc(C)cc2)c2ccccc2n1,798 s
18,O=C(CCCS(=O)(=O)Cc1ccccc1)Nc1ccc2c(c1)OCCO2,700 s
19,CS(=O)(=O)c1ccc2nc(NC(=O)C3COCC(=O)N3Cc3ccccc3)sc2c1 (configuration not stated),649 s
20,COc1ccc(NC(=O)N(C)CCc2noc(COc3ccc(F)cc3)n2)cc1,692 s
21,CN1CCN(C(=O)c2cc(-c3cccs3)n(CC(=O)NCc3ccco3)n2)CC1,572 s
22,COc1ccc(N2CC(c3noc(-c4cc(F)ccc4F)n3)CC2=O)cc1 (configuration not stated),849 s

row,SMILES,RP-LC retention time
1,COc1ccccc1CNC(=O)C1CCN(S(=O)(=O)c2cn(C(C)C)cn2)CC1,733 s
2,O=C(c1ccc(Cl)cc1)N1CCc2nc(-c3ccc(Cl)cc3)ncc2C1,1140 s
3,COc1cccc(NC(=O)C2(C)Oc3cccnc3N(C)C2=O)c1 (configuration not stated),808 s
4,COc1cc(-c2ccc(Nc3ccccc3C(=O)O)c(OC)c2)ccc1Nc1ccccc1C(=O)O,1290 s
5,CC(=O)c1cccc(NC(=O)CN2CCCN(Cc3cccc(F)c3)S2(=O)=O)c1,880 s
6,Cc1nn(CC(=O)NCC2CCN(Cc3ccc(Cl)cc3)CC2)c(=O)c2noc(C)c12,617 s
7,c1ccc(N2CCN(Cc3nc(-c4ccc(N5CCOCC5)nc4)no3)CC2)cc1,772 s
8,COC(=O)c1ccc(C(=O)NCC2(O)CCOCC2)cc1,584 s
9,Cc1cc(C)n(CC(=O)NCCc2c[nH]c3ccccc23)c(=O)n1,570 s
10,Cc1cc2nn(CC(=O)N3CCC(C)CC3)c(=O)n2c(Nc2ccc(C)c(C)c2)n1,941 s
11,COc1ccc(OC)c(-c2cc(C(=O)NCC#CCN3CCc4ccccc4C3)[nH]n2)c1,592 s
12,COCCNC(=O)c1nc(N2CCSCC2)c2c(C)cc(C)nc2n1,591 s
13,COc1ccc(-c2noc(Cn3c(=O)n(C(C)C)c(=O)c4ccccc43)n2)cc1OC,1000 s
14,CSc1cccc(NC(=O)Cn2cccc(-c3nc(-c4ccccc4)no3)c2=O)c1,911 s
15,CCCN1CCN(c2ncc(C(=O)Nc3ccccc3)c(N)n2)CC1,610 s
16,COc1ccc(-c2noc(C3CCCN3C(=O)COc3ccc(Cl)cc3)n2)cc1 (configuration not stated),1030 s
17,O=C(NCC1CN(c2ccc(F)cc2)C(=O)O1)c1cc(Cl)ccc1Cl (configuration not stated),797 s
18,CS(=O)(=O)Nc1ccc(C2(C(=O)NCc3cccc(F)c3)CCCCC2)cc1,887 s
19,Cc1[nH]c(C(=O)N2CCCC(C(=O)NCc3ccc(N(C)C)cc3)C2)c(C)c1C(=O)OC(C)C (configuration not stated),681 s
20,COc1cccc(-n2c(=O)c(C(=O)Nc3ccc(F)cc3F)c(O)c3cccnc32)c1,1220 s
21,COC(=O)C1=CN(c2ccc(OC)c(OC)c2)c2ccccc2S1(=O)=O,763 s
22,COc1ccccc1OCCNC(=O)[C@@]12CCCC[C@H]1N(C)C(=O)CC2,663 s

row,SMILES,RP-LC retention time
1,COCCNc1c(-c2cccc(F)c2)nc2sc(C(=O)N(C)C)c(C)n12,742 s
2,CCC(CO)NC(=O)C(=O)NCCC1=CCCCC1 (configuration not stated),724 s
3,NC(=O)C1CCN(C(=O)c2cc3cccnc3n(Cc3ccccc3F)c2=O)CC1,666 s
4,Cc1ccc(NC(=O)N2CCCC2c2nc(-c3ccc(F)cc3F)no2)cc1 (configuration not stated),972 s
5,O=C(NCC1CCCO1)C1CCN(C(=O)c2cccn2-c2cccnc2)CC1 (configuration not stated),602 s
6,CCC1CN2C=Nc3oc(C)c(C(=O)NCCc4ccccc4)c3C2=N1 (configuration not stated),666 s
7,CCCN1C(=O)C(C)(C(=O)NCc2ccc(C)cc2)Oc2cccnc21 (configuration not stated),616 s
8,COc1ccc(OCC(=O)N(C)CCc2noc(C3CCCCC3)n2)cc1,912 s
9,CCCNC(=O)C1CCCN(c2nc3ncn(CC(=O)NC4CCc5ccccc54)c(=O)c3s2)C1 (configuration not stated),709 s
10,Cc1nc(C#Cc2ccnc(Cl)c2)c(C)n1-c1ccc(OC(F)(F)F)cc1,898 s
11,CCCn1cc(C(=O)Nc2cccc(F)c2)c(S(=O)(=O)N2CCSCC2)n1,1070 s
12,COc1ccc(-c2nc(NC3CCCCC3)c3ccccc3n2)cc1,856 s
13,CCc1nn2c(N3CCN(c4cccc(C)n4)CC3)cc(C)nc2c1-c1ccccc1,1100 s
14,COc1ccc2c(c1)C1(CCN(C(=O)c3ccc(OC)c(OC)c3)C1)C(=O)N2 (configuration not stated),674 s
15,Cc1cccc(Nc2c(-c3ccccc3)nc3nc(C)cc(C)n23)c1,741 s
16,CCN(CC)c1nc2cc(C(=O)OC)ccc2c(=O)n1-c1ccccc1,1110 s
17,CCc1cc(C(=O)N2CCN(c3ccccn3)CC2)nc2cc(-c3cccs3)nn12,706 s
18,CNC(=O)c1ccc(C)c(-n2c(C)cc(OCc3ccc(F)cc3F)c(Br)c2=O)c1,818 s
19,COc1ccc(NC(=O)Cn2nc3c4sc(N(C)C)nc4ncn3c2=O)cc1,1410 s
20,CCCn1c(=O)c(C)nc2cc(-c3noc(CN4C(=O)COc5ccc(Cl)cc54)n3)ccc21,1060 s
21,O=C(NCc1ccccc1)c1nnc(-c2ccc(S(=O)(=O)N3CCCCC3)cc2)o1,953 s
